Reference: BindingDB's records for patent US11834430 (Agency For Science, Technology and Research, 2023)

Target: Protein-S-isoprenylcysteine O-methyltransferase (Homo sapiens, UniProt O60725)
Test: ICMT Biochemical Assay
Description: An ICMT enzymatic assay was developed using Promega's Methyltransferase-GloTMreagents. In the assay, ICMT catalyzes the methylation of the N-Acetyl-S-farnesyl-L-cysteine by transferring a methyl group from SAM to the farnesylated cysteine and further converts the SAM to SAH. The methyltransferase activity is measured based on the amount of SAH produced from the reaction through the use of coupling enzymes that convert the SAH to ATP. […] A final concentration of 2.0 μM and 20 μM of SAM and peptide were added and further incubated for 90 minutes at room temperature before adding the MTase Glo and detection reagent. Reaction signals were detected using microplate readers on luminescent mode (Satire Tecan).

Protein-S-isoprenylcysteine O-methyltransferase, sequence (O60725 whole entry): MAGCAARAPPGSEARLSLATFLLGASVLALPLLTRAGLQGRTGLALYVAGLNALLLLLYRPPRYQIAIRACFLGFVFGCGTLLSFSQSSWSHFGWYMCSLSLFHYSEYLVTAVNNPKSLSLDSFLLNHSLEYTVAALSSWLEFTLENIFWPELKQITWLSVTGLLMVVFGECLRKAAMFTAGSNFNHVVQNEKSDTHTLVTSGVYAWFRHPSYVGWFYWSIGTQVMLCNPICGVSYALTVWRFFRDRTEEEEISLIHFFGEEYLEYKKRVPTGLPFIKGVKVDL

Work on `COc1cc(Cl)ccc1OCCOc1cccc(-n2ccnc2C)c1` [US11834430, Compound 45] yielded an IC50 of 76 nM.

Compound `N#Cc1ccc(OCCOc2ccc(F)c(-c3ccnn3C3CC3)c2)c(F)c1` [US11834430, Compound 88] has an IC50 of 18 nM.
